Test results as given in US20110263527A1, “Sulfated Galactans With Antithrombotic Activity, Pharmaceutical Composition, Method for Treating or Prophylaxis of Arterial or Venous Thrombosis, Method of Extraction and Use Thereof” (priority 2008, published 2011).

Tests used:
venous thrombosis = assay: Venous thrombosis model (vena cava, thromboplastin and stasis); type: in vivo, Wistar rats; conditions: 1.00 mg/kg; FIGS. 3A and 3B
Experimental: Assays were performed in rats with different doses of non-fractionated heparin (□), low molecular weight heparin (▪), native sulfated galactans (▴), ˜14 kDa fragment (◯) and a ˜5 kDa fragment ([…]) (mean±standard error of the mean (SEM), n=3). Thrombosis induced model (A and B) in the rats' vena cava. The mean weight of the thrombus for each dose was expressed as a percentage of weight in the absence of polysaccharide, (C) Thrombosis in the arteriovenous shunt model. The mean weight of the thrombus for each dose was expressed as a percentage of the weight of thrombus in the absence of polysaccharide, (D) laser irradiation induced arterial thrombosis model in the carotid artery. Results were expressed as the mean time to complete occlusion of the artery.
The antithrombotic activity in rats was investigated using rabbit brain thromboplastin with thrombogenic stimulus. We followed the guidelines for institutional animal care and experimentation. Wistar rats (both sexes, body weight of ˜250 g) were anesthetized with a mixture of ketamine and xylazine, as already described. […] A 0.7 cm segment was prepared starting just below the branching of the right renal vein and extending until after the left renal vein which was linked. Different doses of sulfated polysaccharides were intravenously administered 1 cm below the distal lost suture and moved left for 5 minutes. […]

[1] = International Standard (85/600); cited from earlier work
bleeding = tested on: bleeding; parameters: species or system Wistar rats; conditions: rat, in vivo
Experimental: FIG. 6 refers to the effect on bleeding. Non-fractionated heparin (□), low molecular weight heparin (▪), native sulfated galactans (▴), and ˜5 kDa fragment ([…]) were infused into rats. After 5 minutes, the rats' tails were cut 3 mm from the tip and immersed in 40 mL of distilled water at room temperature. The loss of blood was determined after 60 minutes through the measure of hemoglobin in water. The results were expressed in μL of loss blood (mean±standard error of the mean (SEM), n=4). For clarity purposes only one SEM bar is shown for each point.
Wistar rats (both sexes, body weight ˜250 g) were anesthetized with a mixture of ketamine and xylazine, as previously described. The right carotid artery was cannulated and different polysaccharides doses were infused and allowed to circulate for 5 minutes. The rats tail was cut 3 mm from the tip and immersed in 40 mL of distilled water at room temperature. After 60 minutes, blood loss was determined by measuring the hemoglobin in water by using a spectrophotometric method (Zancan P, Mourão P A S. Venous and arterial thrombosis in rat models: dissociation of the antithrombotic effects of giycosaminoglycans. Blood Coagul Fibrin 2004; 15: 45-54). The blood volume was drawn from a standard curve based on absorbance at 540 nm.

[2] = target: T1, factor Xa (antithrombin-mediated inactivation) (Homo sapiens, UniProt P00742+P01008); assay: Factor Xa inhibition by antithrombin in the presence of sulfated polysaccharides; type: biochemical; conditions: antithrombin 10 nM, factor Xa 2 nM, FIG. 2B
T1 construct: thrombin or factor Xa 2 nM (Haematologic Technologies Inc., Vermont, USA); purchased Haematologic Technologies Inc., Vermont, USA
Experimental: (§1) Antithrombin (10 nM) or of heparin cofactor II (15 nM) were incubated with thrombin (2 nM) or factor Xa (2 nM) in the presence of various concentrations of non-fractionated heparin (□), low molecular weight heparin (▪), native sulfated galactans (▴), ˜14 kDa fragment (◯) and a ˜5 kDa fragment ([…]). After 60 seconds, the amidolytic thrombin activity and factor Xa were determined with a chromogenic substrate specific for each protease ([…]) [mean±standard error of the mean (SEM), n=3]. No inhibition was observed when thrombin or factor Xa was incubated with sulfated polysaccharide alone over the same range of tested concentrations.
(§2) g) Thrombin Inhibition or Factor Xa by Antithrombin and Heparin Cofactor II in the Presence of Sulfated Polysaccharides
(§3) The incubations were performed on plates of 96 wells. […] After 60 seconds at 37° C., were added 25 μL chromogenic substrate (S-2238 for thrombin or S-2222 for factor Xa) (Chromogenix AB, Mondal, Sweden), and was recorded absorbance at 405 nm for 120 seconds. The rate of absorbance change was proportional to the activity of thrombin or factor Xa remaining in the incubation. […]

[3] = target: T2, thrombin (heparin cofactor II-mediated inactivation) (Homo sapiens, UniProt P00734+P05546); assay: Thrombin inhibition by heparin cofactor II in the presence of sulfated polysaccharides; type: biochemical; conditions: heparin cofactor II 15 nM, thrombin 2 nM, FIG. 2C
T2 construct: purchased Haematologic Technologies Inc., Vermont, USA
Experimental: as §1, §2, §3

[4] = target: T3, thrombin (antithrombin-mediated inactivation) (Homo sapiens, UniProt P00734+P01008); assay: Thrombin inhibition by antithrombin in the presence of sulfated polysaccharides; type: biochemical; conditions: antithrombin 10 nM, thrombin 2 nM, FIG. 2A
T3 construct: purchased Haematologic Technologies Inc., Vermont, USA
Experimental: as §1, §2, §3

factor XII = target: T4, factor XII (Homo sapiens, UniProt P00748); assay: Activation of factor XII in human plasma in the presence of sulfated polysaccharides; type: biochemical; conditions: chromogenic substrate S-2302, FIG. 4
T4 construct: from tissue; host or cells: citrated human plasma
T4 sequence (P00748 20-615): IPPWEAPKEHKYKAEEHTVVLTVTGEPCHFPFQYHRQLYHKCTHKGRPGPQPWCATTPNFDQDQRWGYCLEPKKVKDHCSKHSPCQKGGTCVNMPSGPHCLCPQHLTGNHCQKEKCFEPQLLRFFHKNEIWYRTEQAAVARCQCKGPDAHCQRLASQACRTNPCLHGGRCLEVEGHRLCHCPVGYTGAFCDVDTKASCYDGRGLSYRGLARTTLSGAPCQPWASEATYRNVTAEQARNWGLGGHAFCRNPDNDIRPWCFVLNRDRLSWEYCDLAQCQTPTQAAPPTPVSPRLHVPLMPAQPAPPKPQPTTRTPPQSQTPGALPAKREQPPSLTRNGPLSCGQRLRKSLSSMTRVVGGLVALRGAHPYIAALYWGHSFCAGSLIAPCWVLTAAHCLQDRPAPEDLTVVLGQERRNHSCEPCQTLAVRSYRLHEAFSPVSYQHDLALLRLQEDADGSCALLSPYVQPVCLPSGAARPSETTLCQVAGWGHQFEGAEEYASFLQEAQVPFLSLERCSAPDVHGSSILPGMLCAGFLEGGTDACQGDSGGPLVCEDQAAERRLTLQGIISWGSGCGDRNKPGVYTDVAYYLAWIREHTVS
Experimental: FIG. 4 refers to the factor XII activation in human plasma incubated with non-fractionated heparin (□), native sulfated galactans (▴), ˜14 kDa fragment (◯) and a ˜5 kDa fragment ([…]). After 60 seconds of incubation at 37° C., 0.3 mM of chromogenic substrate for plasma calicrein was added. The increase in absorbance at 405 nm was expressed in milli OD/min (mean±standard error of the mean (SEM), n=3).
h) Activation of Factor XII in the Presence of Sulfated Polysaccharides
The assays for activation of factor XII were performed on plates of 96 wells. Citrated human plasma was diluted with 3 volumes of TS buffer and samples (40 μL) were incubated with different concentrations of sulfated polysaccharides (30 μL). After incubation at 37° C. for 60 seconds, were added 30 μL of chromogenic substrate (S-2302, 0.3 mM) (Chromogenix AB, Mondal, Sweden) and absorbance at 405 nm for 300 seconds was recorded. S-2302 is a chromogenic substrate for plasma calicrein activated by its precalicrein precursor through the action of activated factor XII. The method for determining the activity of factor XIIa is based on difference in absorbance between formed p-nitroanilide and original substrate. The formation rate of p-nitroanilide, i.e., the increase in absorbance at 405 nm, is proportional to enzyme activity. No activation occurred in control experiments in the absence of sulfated polysaccharide.

T1 sequence (P00742 41-179 limits assumed): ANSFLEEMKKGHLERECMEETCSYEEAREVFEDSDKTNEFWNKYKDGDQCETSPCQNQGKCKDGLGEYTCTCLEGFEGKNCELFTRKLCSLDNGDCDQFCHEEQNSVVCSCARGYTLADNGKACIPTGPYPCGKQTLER
T1 sequence (P00742 235-488 limits assumed): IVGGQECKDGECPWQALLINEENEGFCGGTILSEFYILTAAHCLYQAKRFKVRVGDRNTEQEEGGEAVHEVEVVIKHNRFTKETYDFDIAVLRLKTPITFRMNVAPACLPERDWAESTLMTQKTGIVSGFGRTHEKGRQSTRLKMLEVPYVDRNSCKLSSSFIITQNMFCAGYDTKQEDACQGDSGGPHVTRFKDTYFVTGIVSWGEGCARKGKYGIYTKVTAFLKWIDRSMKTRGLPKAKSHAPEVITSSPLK
T1 sequence (P01008 33-464): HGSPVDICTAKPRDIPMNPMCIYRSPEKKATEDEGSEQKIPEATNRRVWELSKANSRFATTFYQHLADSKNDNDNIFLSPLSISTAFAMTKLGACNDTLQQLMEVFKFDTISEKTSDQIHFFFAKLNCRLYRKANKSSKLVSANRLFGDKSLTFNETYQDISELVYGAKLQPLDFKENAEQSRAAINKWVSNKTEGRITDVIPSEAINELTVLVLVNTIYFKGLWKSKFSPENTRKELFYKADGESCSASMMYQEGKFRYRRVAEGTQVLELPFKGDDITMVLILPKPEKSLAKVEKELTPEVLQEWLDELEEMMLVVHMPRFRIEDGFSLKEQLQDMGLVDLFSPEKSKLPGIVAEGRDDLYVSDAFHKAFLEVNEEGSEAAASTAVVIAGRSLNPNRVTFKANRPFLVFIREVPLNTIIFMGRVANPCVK

Row | effect on bleeding (hemorrhagic effect, bleeding time) (bleeding) | inactivation of factor Xa by antithrombin [2] | inactivation of thrombin by heparin cofactor II [3] | inactivation of thrombin by antithrombin [4] | factor XII activation (factor XII) | Substance | antithrombotic activity (venous thrombosis) | activity of the standard [1] [IU/mg]
1 | had no effect | more active than ˜5 kDa fragment | more active than ˜5 kDa fragment | more active than ˜5 kDa fragment | – | low molecular weight heparin | approximately 70% | 66
2 | – | – | – | – | activates factor XII | dextran sulfate | – | –
